Results taken from patent publication US7297704B2, “Cycloalkyfused indole, benzothiophene, benzofuran and idene derivatives” (Wyeth, priority 2005, dated 2007).
Structures can show the parent of a compound that is named as a salt. Where two headings read alike, the source gives them in different places. Marks after values point to notes of the source that are not given here.

Experiments:
[1] = molecular target: h-5-HT-T (Homo sapiens, UniProt P31645); test: h-5-HT-T IC50 (Table 1, no method described)
[2] = molecular target: T1, cloned human 5-HT1A receptors (Homo sapiens, UniProt P08908); test: 35S-GTPγS binding assay; format: biochemical; details: for IC50: superscript b, reversal of 8-OH-DPAT effect; for Imax (maximum inhibitory effect) / GTPγS, (Imax)^d: superscript d, maximum inhibitory effect; for EC50: superscript a, potency of stimulatory effect; for Emax: superscript c, maximum stimulatory effect
T1 construct: expressed in transfected cells
T1 sequence (P08908 1-422): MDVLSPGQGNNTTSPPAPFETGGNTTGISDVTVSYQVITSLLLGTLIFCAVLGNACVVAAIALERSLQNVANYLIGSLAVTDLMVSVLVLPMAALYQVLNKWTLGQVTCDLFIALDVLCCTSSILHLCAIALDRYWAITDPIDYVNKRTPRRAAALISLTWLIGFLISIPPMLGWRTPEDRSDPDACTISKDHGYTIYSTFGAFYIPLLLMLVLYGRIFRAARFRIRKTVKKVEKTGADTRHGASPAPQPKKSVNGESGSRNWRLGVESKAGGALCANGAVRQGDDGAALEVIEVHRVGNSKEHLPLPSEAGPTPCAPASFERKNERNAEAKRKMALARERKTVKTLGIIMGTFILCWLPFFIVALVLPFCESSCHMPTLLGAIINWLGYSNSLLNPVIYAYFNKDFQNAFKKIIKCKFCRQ
Excerpt: The ^35S-GTPγS binding assay similar to that used by Lazareno and Birdsall (Br. J. Pharmacol., 1993, 109: 1120) was used to determine the test compound's ability to affect the binding of ^35S-GTPγS to membranes containing cloned human 5-HT1A receptors. Agonists produce an increase in binding whereas antagonists produce no increase but rather reverse the effects of the standard agonist 8-OH-DPAT. The test compound's maximum stimulatory effect is represented as the Emax, while its potency is defined by the EC50. The test compound's maximum inhibitory effect is represented as the Imax, while its potency is defined by the IC50. […] was used to determine maximum agonist or antagonist response.

[3] = molecular target: T2, Human 5-HT1A Receptor (Homo sapiens, UniProt P08908); test: cAMP RIA in human 5-HT1A receptor cell line; format: cell-based; details: CHO cells; for EC50: superscript a, read-out: c-AMP, (EC50)^a; for EC50 / Emax / c-AMP, (Emax)^c: forskolin stimulated cAMP; for Emax / c-AMP, (Emax)^c: superscript c; for Emax: read-out: c-AMP, (Emax)^c
T2 construct: expressed in transfected cells; host or cells: CHO cells
T2 sequence (P08908 1-422): T1 sequence (P08908 1-422)
How it was run: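 Stably transfected CHO cells preincubated in Krebs with 500 uM IBMX, then given forskolin (1 uM final) and test compound (0.1 and 1 uM initial screen) for 10 min at 37° C; cAMP measured by RIA as % inhibition. Antagonist mode: 6 concentrations preincubated 20 min before agonist plus forskolin; IC50 for reversal.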

[4] = molecular target: T2, Human 5-HT1A Receptor; test: 8-OH-DPAT binding, human 5-HT1A receptor cell line; details: stably transfected CHO cells, 8-OH-DPAT ligand 1.5 nM; read-out: h5-HT1A Affinity, Ki
How it was run: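 Membranes from CHO cells stably expressing human 5-HT1A, incubated 30 min at room temperature in 50 mM Tris pH 7.5 with 1.5 nM radioligand (8-OH-DPAT). Non-specific binding defined with […]; filtration on PEI-soaked GF/B filters. Single-point inhibition at […], then Ki for actives.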

[5] = molecular target: T3, serotonin transporter (Rattus norvegicus, UniProt P31652); test: 3H-paroxetine binding to the serotonin transporter, rat frontal cortical membranes; details: values printed without parentheses, 3H-paroxetine 0.1 nM, read-out: rb-5-HH-T, Ki
T3 construct: frontal cortical membranes prepared from male S.D. rats; from tissue; host or cells: rat frontal cortex membranes (male Sprague-Dawley)
How it was run: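 Male Sprague-Dawley rat frontal cortical membranes incubated with 0.1 nM ³H-paroxetine for 60 min at 25 °C, test compound at one to eight concentrations; 10 μM fluoxetine defined specific binding. Filtration separated bound ligand, counted by scintillation. IC50 from nonlinear regression, converted to Ki by Cheng–Prusoff.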

Chain of h-5-HT-T (P31645 whole entry): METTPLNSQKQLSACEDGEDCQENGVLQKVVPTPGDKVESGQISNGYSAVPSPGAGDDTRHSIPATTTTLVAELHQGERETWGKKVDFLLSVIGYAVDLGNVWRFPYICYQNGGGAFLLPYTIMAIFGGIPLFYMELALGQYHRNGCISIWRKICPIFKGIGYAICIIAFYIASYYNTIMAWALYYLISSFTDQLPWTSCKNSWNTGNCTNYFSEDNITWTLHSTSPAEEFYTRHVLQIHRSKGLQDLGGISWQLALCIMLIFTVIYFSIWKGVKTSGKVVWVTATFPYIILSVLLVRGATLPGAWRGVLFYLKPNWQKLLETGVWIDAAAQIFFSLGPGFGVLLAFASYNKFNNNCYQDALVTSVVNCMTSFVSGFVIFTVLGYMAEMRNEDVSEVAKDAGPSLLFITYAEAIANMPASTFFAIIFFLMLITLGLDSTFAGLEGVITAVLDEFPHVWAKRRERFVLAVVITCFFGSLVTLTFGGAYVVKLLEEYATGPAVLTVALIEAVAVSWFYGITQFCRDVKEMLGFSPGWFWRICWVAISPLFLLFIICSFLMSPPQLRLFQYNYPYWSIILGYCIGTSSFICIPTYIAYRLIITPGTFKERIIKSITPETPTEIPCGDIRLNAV
T3 sequence (P31652 whole entry): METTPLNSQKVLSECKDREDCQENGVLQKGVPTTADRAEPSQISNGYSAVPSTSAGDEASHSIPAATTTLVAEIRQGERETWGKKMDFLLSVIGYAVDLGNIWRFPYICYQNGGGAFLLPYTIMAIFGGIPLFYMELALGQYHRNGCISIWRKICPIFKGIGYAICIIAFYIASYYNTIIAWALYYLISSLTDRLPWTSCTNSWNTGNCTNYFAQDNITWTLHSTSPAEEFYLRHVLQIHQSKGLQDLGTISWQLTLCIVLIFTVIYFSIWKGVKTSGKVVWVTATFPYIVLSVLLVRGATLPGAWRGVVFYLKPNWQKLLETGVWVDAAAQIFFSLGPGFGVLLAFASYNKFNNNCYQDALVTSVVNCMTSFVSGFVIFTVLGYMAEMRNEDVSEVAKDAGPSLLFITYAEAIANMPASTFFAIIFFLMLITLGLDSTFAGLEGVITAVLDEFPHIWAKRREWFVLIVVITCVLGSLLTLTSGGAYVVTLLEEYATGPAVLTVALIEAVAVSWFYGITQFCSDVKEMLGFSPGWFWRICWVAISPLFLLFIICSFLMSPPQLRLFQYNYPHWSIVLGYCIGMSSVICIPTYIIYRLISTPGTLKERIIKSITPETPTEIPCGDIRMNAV

Row | Emax ([3]; CHO) [%] | GTPγS, (Imax)^d [2] [%^d] | c-AMP, (Emax)^c [3] [%^c] | SMILES | IC50 [1] [nM] | IC50 [2] [nM] | Imax (maximum inhibitory effect) [2] [%] | EC50 [3] [nM] | Emax [3] [%] | Ki [4] [nM] | Ki [5] [nM] | IC50 ([3]; superscript b, reversal of agonist activity, read-out: c-AMP, (IC50)^b) [nM] | EC50 [2] [nM] | Emax [2] [%] | melting point
1 |  |  |  | Cc1ccc2c3c(ccc2n1)OC[C@H](CN(CC1CC1)C[C@@H]1CCc2[nH]c4ccc(F)cc4c2C1)O3 [Example 55, (Cyclopropylmethyl){[(3R)-6-fluoro-2,3,4,9-tetrahydro-1H-carbazol-3-yl]methyl}{[(2S)-8-methyl-2,3-dihydro[1,4]dioxino[2,3-f]quinolin-2-yl]methyl}amine dihydrochloride dihydrate] | 8.5 ± 0.18 | 1130 | 74 | 211 | 67 | 850 | 110 |  |  |  | 
2 |  |  |  | CCCN(C[C@@H]1CCc2[nH]c3ccc(F)cc3c2C1)C[C@H]1COc2ccc3nc(C)ccc3c2O1 [Example 54, N-{[(3R)-6-Fluoro-2,3,4,9-tetrahydro-1H-carbazol-3-yl]methyl}-N-{[(2S)-8-methyl-2,3-dihydro[1,4]dioxino[2,3-f]quinolin-2-yl]methyl}propan-1-amine dihydrochloride dihydrate] | 16.6 ± 0.85 | 581 | 63 | 177 | 48 | 617 | 96.5 |  |  |  | 
3 |  |  |  | CCN(CC1CCc2[nH]c3ccc(F)cc3c2C1)C[C@H]1COc2ccc3nc(C)ccc3c2O1 (stereo partly drawn) [Example 50, N-[(6-Fluoro-2,3,4,9-tetrahydro-1H-carbazol-3-yl)methyl]-N-{[(2S)-8-methyl-2,3-dihydro[1,4]dioxino[2,3-f]quinolin-2-yl]methyl}ethanamine dihydrochloride dihydrate] | 5.73 ± 0.33 | 179 | 100 |  |  | 226 | 26.9 | 137 |  |  | 
4 | 62 |  |  | Cc1ccc2c3c(ccc2n1)OC[C@H](CNCC1CCc2c(sc4cc(F)ccc24)C1)O3 (single isomer, unassigned) [39 diastereomer 1] | 2060 | 645 | 100 |  |  | 7.09 | 210 |  |  |  | 
5 |  |  |  | Cc1ccc2c3c(ccc2n1)OC[C@H](CNCC[C@@H]1CCc2[nH]c4ccc(F)cc4c2C1)O3 (single isomer, unassigned) [Example 41, dihydrochloride] | 0.58 ± 0.14 |  |  | 4.13 | 94 | 242 | 9.45 |  | 24.8 | 94 | 
6 |  | 65 | 62 | Cc1ccc2c3c(ccc2n1)OC[C@H](CNCC1CCc2sc4ccc(F)cc4c2C1)O3 (single isomer, unassigned) [31 diastereomer 2] | 547 | 290 |  |  |  | 3.67 | 51.5 |  |  |  | 
7 |  |  |  | Cc1ccc2c3c(ccc2n1)OC[C@H](CN[C@H]1CCc2c([nH]c4ccccc24)C1)O3 (single isomer, unassigned) [Example 45, dihydrochloride] | 38.95 ± 0.18 | 461 |  | 157 | 59 | 365 | 34.3 |  |  |  | 
8 |  |  |  | Cc1ccc2c3c(ccc2n1)OC[C@H](CNCC[C@H]1CCc2[nH]c4ccc(F)cc4c2C1)O3 (single isomer, unassigned) [Example 42, dihydrochloride] | 2.8 ± 0.12 | 351 | 71 | 36.4 | 87 | 751 | 58 |  | 63 | 39 | 
9 |  |  |  | Cc1ccc2c3c(ccc2n1)OC[C@H](CN(CC1CC1)CC1CCc2[nH]c4ccc(F)cc4c2C1)O3 (stereo partly drawn) [Example 52, (Cyclopropylmethyl)[(6-fluoro-2,3,4,9-tetrahydro-1H-carbazol-3-yl)methyl]{[(2S)-8-methyl-2,3-dihydro[1,4]dioxino[2,3-f]quinolin-2-yl]methyl}amine dihydrochloride dihydrate] | 19.5 ± 0.28 | 1580 | 100 | 312 | 70 | 936 | 670 |  |  |  | 
10 |  |  |  | Cc1ccc2c3c(ccc2n1)OC[C@H](CNC1CCc2c([nH]c4ccccc24)C1)O3.Cl.Cl (mixture of isomers) [Example 43, N-{[(2S)-8-methyl-2,3-dihydro[1,4]dioxino[2,3-f]quinolin-2-yl]methyl}-2,3,4,9-tetrahydro-1H-carbazol-2-amine dihydrochloride] | 19.3 ± 2.51 | 197 | 98.5 | 233 | 61 | 432 | 45.1 |  |  |  | 117 to 118 °C (dec.)
11 |  |  |  | Cc1ccc2c3c(ccc2n1)OC[C@H](CN(C[C@@H]1CCc2[nH]c4ccc(F)cc4c2C1)C1CCC1)O3 [Example 56, N-{[(3R)-6-Fluoro-2,3,4,9-tetrahydro-1H-carbazol-3-yl]methyl}-N-{[(2S)-8-methyl-2,3-dihydro[1,4]dioxino[2,3-f]quinolin-2-yl]methyl}cyclobutanamine dihydrochloride dihydrate] | 18.1 ± 0.39 | 3100 |  | 154 | 69 | 1730 | 127 |  |  |  | 
12 |  | 80 | 75 | Cc1ccc2c3c(ccc2n1)OC[C@H](CNCC1CCc2c(sc4cc(F)ccc24)C1)O3 (single isomer, unassigned) [39 diastereomer 2] | 1440 | 117 |  |  |  | 2.16 | 184 |  |  |  | 
